These results are taken from patent US20230271950A1, “ANTIBACTERIAL PICOLINAMIDE COMPOUNDS” (University of Notre Dame Du Lac, priority 2020, published 2023).

Molecules are shown by their SMILES.

Assay [1] relates to C. difficile ATCC43255. In words: Macromolecular synthesis assay (radioactive precursor incorporation). Format: cell-based, Clostridioides difficile. Conditions: 0.5×MIC. On the procedure:
(§1) FIG. 2. Mechanism of action of compound 1. (A) Macromolecular biosynthesis assays: Compound 1 was incubated with C. difficile ATCC43255 at 0.5×MIC. […] The incubation time was 60 min for DNA, 120 min for peptidoglycan synthesis and RNA, and 180 min for protein synthesis. (B-G) Imaging of C. difficile […] vegetative cells (logarithmic growth) by scanning electron microscopy.
The mechanism of action of 1 was investigated using macromolecular synthesis assays. These assays measure the incorporation of radioactive precursors ([2,8-^3H]-adenine, [5,6-^3H]-uridine, 1-[3,4,5-^3H(N)]-leucine, and N-acetyl-d-[6-^3H]glucosamine) respectively into DNA, RNA, protein, and peptidoglycan. […] This analysis visualizes the cell wall as the outermost layer of the cell envelope of Gram-positive bacteria such as C. difficile.
Macromolecular synthesis assay. The macromolecular synthesis assay was performed by established methods. […] The radiolabeled precursors were purchased from Perkin Elmer (Waltham, Mass., USA).

The test system of assay [2] is C. difficile ATCC43255. In words: Scanning-electron microscopy of C. difficile vegetative cells. Format: cell-based, Clostridioides difficile. The settings on record: compound 1 at 4× to 32×MIC; VAN at 4×MIC. As for the experimental part: as §1
Scanning-electron microscopy. […] Following incubation, the cells were washed with PBS (3×) and applied onto poly-1-lysine (Santa Cruz Biotechnology, Dallas, Tex.) coated microglass coverslips (Electron Microscopy Sciences, Hatfield, Pa.) and incubated for 15 min. The cells were fixed for 1 h with 2% glutaraldehyde, followed by a wash (3×) with sodium cacodylate buffer at pH 7.4. The samples were fixed with 1% osmium tetroxide for 1 h and rinsed (3×) in the buffer. The samples were then put through a graded ethanol series for dehydration, followed by critical point drying. The samples were then mounted on SEM stubs and sputter-coated with iridium. Microscopy and imaging were performed on a Magellan 400 XHR instrument (FEI, Hillsboro, Oreg.).

A further assay deals with C. difficile. Nature of the assay: Minimum bactericidal concentration (MBC). Format: cell-based, Clostridioides difficile.
A further assay has as its system C. difficile ATCC 43255. Nature of the assay: Mouse model of recurrent C. difficile infection. Format: in vivo, mice. The settings on record: VAN 50 mg/kg oral once a day for 5 days; days 10-15. On the procedure:
Next, compound 1 was evaluated in a mouse model of recurrent CDI.
Animals. Female C57BL/6 mice weighing 18-20 g and 6-8 weeks of age were used for the efficacy study (Jackson, Bar Harbor, Me.). Female CD-1 mice (24-31 g and 7-8 weeks of age) were used for the PK study. They were housed in groups of five mice in sterile polycarbonate shoeboxes with bedding consisting of ¼-inch corncob (The Andersons Ind., Maumee, Ohio) and Alpha-Dri (Shepherd Specialty Papers, Inc., Richland, Mich.). Mice were maintained on a 12-h light/dark cycle at 72° F. and were given Teklad 2918 irradiated extruded rodent diet and water ad libitum. All procedures were performed in accordance with and approved by the University of Notre Dame Institutional Animal Care and Use Committee.
C. difficile infection model. The recurrent C. difficile infection model reported by Chen et al. was used (Gastroenterology 2008, 135, 1984). […] Subsequently, mice were given a 10 mg/kg intraperitoneal injection of clindamycin. The following day, the mice were infected intragastrically with 10^4 CFU of C. difficile ATCC 43255. […] Body weights and survival were recorded for 25 days. The study was repeated a second time.

For another assay, the system named is ESKAPE panel. Nature of the assay: MIC against the ESKAPE panel. Conditions: E. faecium, S. aureus, K. pneumoniae, A. baumannii, P. aeruginosa, Enterobacter species. The assay is classed as cell-based. As for the experimental part:
Minimum-inhibitory Concentration Determination. MICs for C. difficile strains and other gut bacteria were determined with the broth microdilution method as previously described (J. Antimicrob. Chemother. 2013, 68, 515). ESKAPE panel and MRSA MICs were determined as described in the Clinical & Laboratory Standards Institute guidelines.

Take `O=C(O)c1ccc2oc(NC(=O)c3cc(Oc4cccc(OC(F)(F)F)c4)ccn3)nc2c1` [Compound 1, Sodium 2-(4-(3-(trifluoromethoxy)phenoxy)picolinamido)benzo[d]oxazole-5-carboxylate]: in the assay on C. difficile ATCC43255 [1], the “inhibition of DNA, RNA, and protein synthesis” value is recorded as “Minimal levels of inhibition”. Further, the “inhibition of cell-wall peptidoglycan biosynthesis” value with C. difficile ATCC43255 [1] (N-acetyl-d-[6-^3H]glucosamine incorporation, 120 min) is given as 55±4%. Moreover, the “cell surface by scanning-electron microscopy” value with C. difficile ATCC43255 [2] was “bleb formation on the surface was evident”. Besides, in the assay on C. difficile (C. difficile), the “MBC higher than MIC” value was found to be 64 fold. In the assay with C. difficile (Clostridioides difficile, C. difficile), the MBC worked out at 4 µg/mL. Besides, in the assay on C. difficile (from MBC versus MIC), the “bacteriostatic or bactericidal (by definition)” value was “bacteriostatic”.

Turning to `CN[C@H](CC(C)C)C(=O)N[C@H]1C(=O)N[C@@H](CC(N)=O)C(=O)N[C@H]2C(=O)N[C@H]3C(=O)N[C@H](C(=O)N[C@H](C(=O)O)c4cc(O)cc(O)c4-c4cc3ccc4O)[C@H](O)c3ccc(c(Cl)c3)Oc3cc2cc(c3O[C@@H]2O[C@H](CO)[C@@H](O)[C@H](O)[C@H]2O[C@H]2C[C@](C)(N)[C@H](O)[C@H](C)O2)Oc2ccc(cc2Cl)[C@H]1O` [VAN, vancomycin, reference compound], the “cell surface by scanning-electron microscopy” value in the assay on C. difficile ATCC43255 [2] is recorded as “altered”. Further, the “recurrence of infection (loss of body weight)” value with C. difficile ATCC 43255 was “recurrence of infection is observed”.

For the compound `O=C(Nc1ncco1)c1ccnc(-c2ccc(Cl)c(Cl)c2)c1` [Compound 4, 2-(3,4-Dichlorophenyl)-N-(oxazol-2-yl)isonicotinamide], the “activity against the ESKAPE panel” value with ESKAPE panel is listed as “active only against the Gram-positive members of the panel”.

What is called MBC is the lowest tested concentration that kills the bacteria rather than only halting them. Read a low MBC as more potent killing.
